In US7507725B2, “Compounds with sulphonamide group and pharmaceutical compositions containing these compounds” (Schering AG, priority 2000, dated 2009):

Columns and labels:
erythrocytes [1] = assay: Distribution of total radioactivity (3H/14C) on erythrocytes and plasma after one-time oral administration (FIG. 1); format: in vivo; conditions: 3H-labeled steroid skeleton
Text: There are indications that in oral administration, both radicals R^1 and R^2, if they are different from a hydrogen atom, are cleaved off and are replaced by a hydrogen atom, so that in this case, not the group —SO2NR^1R^2, but rather the group —SO2NH2 is provided for the uptake into erythrocytes or binding to erythrocytes. […] The data also confirm that substances according to the invention are enriched in the erythrocyte compartment relative to the plasma.

[2] = Hepatic estrogenicity after oral administration; format: in vivo
Text: After oral administration, estradiol sulfamate is resorbed by the gastrointestinal tract and is taken up into erythrocytes or bonded to erythrocytes. […] The estradiol sulfamate is enriched in the erythrocytes by a multiple (factor: 98:2) of the plasma concentration, whereby a depot of the estradiol sulfamate is produced that makes possible the slow release of the estradiol sulfamate into peripheral tissues and target tissues (see FIG. 2). This makes possible an extension of the dwell time of the estradiol sulfamate in the organism, and the occurrence of very high levels in the plasma is avoided.

[3] = biological target: T1, carboanhydrase II (hCA II) (Homo sapiens, UniProt P00918); assay: Affinity chromatography of erythrocyte lysate proteins on immobilized estradiol sulfamate derivative, eluate analysed by Western blot; format: binding; conditions: ligand J1242 immobilized on E-AH-sepharose
T1 construct: proteins of erythrocyte-lysates were separated on the column; from tissue; host or cells: erythrocytes (lysate)
Text: In FIG. 3, the chemical synthesis of a linkable estradiol sulfamate (J1242) is shown, which is described in S. Schwarz et al., Steroids 64 (1999) 460–471.
After the estradiol sulfamate derivative is immobilized in the column material (E-AH-sepharose), proteins of erythrocyte-lysates were separated on the column. The protein that is responsible for the binding of estradiol sulfamate in erythrocytes was adsorbed on the surface of the affinity chromatography column. After the protein remaining on the column was washed and eluted with an acetate buffer, the eluate was analyzed with use of the “Western Plot Technique” (see FIGS. 4 and 5).

erythrocytes [4] = assay: Stability of the prodrug and release of the active ingredient in erythrocytes, plasma and tissues; format: in vitro ADME
Text: If the compounds act as a prodrug, the therapeutically desirable action is obtained by release, especially hydrolytic cleavage, of the active ingredient that is contained in the product and/or its metabolites.

| Compound | presence of the 14C-labeled acyl substituent of the sulfamate radical in the blood (erythrocytes [1]) | hepatic estrogenicity [2] | binding to carrier protein in erythrocytes [3] | site of release of the active ingredient from the prodrug (erythrocytes [4]) | stability of the compound in erythrocytes (erythrocytes [4]; erythrocytes) |
| --- | --- | --- | --- | --- | --- |
| 17β-hydroxy-estra-1,3,5(10)-trien-3-yl-(N-acetyl)sulfamate [J1045] | no longer present in the-blood |  |  |  |  |
| C[C@]12CC[C@@H]3c4ccc(OS(N)(=O)=O)cc4CC[C@H]3[C@@H]1CC[C@@H]2O [J995, estradiol sulfamate] |  | reduced hepatic estrogenicity | binds to the carboanhydrase II (hCA II) | only in the plasma or in tissues | stable in the erythrocytes |
